Values of other authors, collected in patent publication US20030082109A1, “Dextrorotary nicotine for smoking cessation” (priority 2001, published 2003).
Read-outs that look alike come from different tables or passages of the source.

How the values were obtained:
[1] = given amount of d-isomer vs like amount of natural l-isomer, in a person
living organisms = details: compared with l-isomer nicotine, found and reported
[2] = use as alternative alkaloid in smoking substitute; found and reported

SMILES | sensations and satisfaction relative to a like amount of l-isomer nicotine [1] | toxicity relative to the natural tobacco-derived l-isomer of nicotine (living organisms) | toxicity relative to the natural tobacco-derived l-isomer of nicotine (living organisms; listed as dextrorotary isomer of nicotine) | adverse side effects [2]
CN1CCCC1c1cccnc1 (stereo not drawn) [d-isomer of nicotine, 1 methyl-2-(3-Pyridyl) pyrrolidine] | same sensations and satisfaction | one half as toxic | half as toxic | –
CN1[C@@H](CC(=O)c2ccccc2)CCC[C@H]1C[C@H](O)c1ccccc1 [lobeline] | – | – | – | adverse side effects, which are worse than tobacco withdrawal symptoms
